Data taken from US12053506B2, “Romo1-derived antimicrobial peptides and variants thereof” (priority 2019, dated 2024).
Converted amounts (≈) assume the structure as drawn. Non-standard residues stand in square brackets, D forms with d. Residues, ends and D or L forms follow the SMILES beside them. No end group written: not given here. Nle = CCCC[C@H](N)C(=O)O

Legend:
CRPA = test: MBC, evaluation of antibacterial activities of KU-5878 variants; assay type: cell-based; conditions: Tables 11-15, no unit printed
Protocol: Variants were prepared by deleting one amino acid from the amino acid sequence of KU-5878 (SEQ ID NO: 13), and the antibacterial activities thereof were evaluated.
Variants were prepared by deleting two or more amino acids from the amino acid sequence of KU-5878 (SEQ ID NO: 13), and the antibacterial activities thereof were evaluated.
One amino acid in the amino acid sequence of KU-5878 (SEQ ID NO: 13) was substituted, and the antibacterial activities of the peptides were evaluated.
Substitutions of Q62K, S63K and T66K were sequentially added to the amino acid sequence of KU-5878-T59K, and the antibacterial activities of the peptides were evaluated.
An amino acid repeat sequence was added to the C-terminus of KU-5878, and the antibacterial activities of the peptides were evaluated. According to Table 15 below, when the R (arginine) repeat sequence or K (lysine) sequence was added to the C-terminus of KU-5878, the antibacterial activity of the peptide increased.

[1] = test system: methicillin-resistant Staphylococcus aureus (ATCC 33591); conditions: for MBC value (μg/ml) against methicillin-resistant Staphylococcus aureus: ATCC 33591, 4 h; for MBC MRSA: Tables 11-15, no unit printed
Protocol: (§1) First, each of Pseudomonas aeruginosa (ATCC 27853) and Staphylococcus aureus (ATCC 29213) was cultured in 3% (w/v) TSB (Tryptic Soy Broth) liquid medium at 37° C. and 200 rpm for 4 hours, and then further cultured under the same conditions for 3 hours to a concentration of 5×10^6 CFU/ml. Strain solutions were prepared by diluting each of the further cultured strains with SP (sodium phosphate; 10 mM sodium phosphate, 1% TSB) buffer to a final concentration of 2×10^5 CFU/ml.
(§2) Then, each peptide at varying concentrations (0 μg/ml to 300 μg/ml) was dispensed into each well of a 96-well microplate, and 100 μl (1×10^5 CFU/ml) of each of the prepared strain solutions was added thereto, mixed therewith, and allowed to react with the peptide in an incubator at 37° C. for 1 hour.
(§3) In addition, 30 g/L of TS (tryptic soy) and 15 g/L of agar were dissolved in distilled water and sterilized, and then 25 ml of the solution was poured onto a 100 mm round plate and solidified at room temperature for one day or more, thereby preparing a TS agar plate. 10 μl of each reaction solution of the peptide and the strain was plated on the TS agar plate at a constant size, and incubated in an incubator at 37° C. for 18 hours, and then colony formation on the plate was checked.
(§4) Specifically, each type of bacteria was cultured in 3% (w/v) TSB (Tryptic Soy Broth) liquid medium at 37° C. and 200 rpm for 4 hours, and then further cultured under the same conditions for 3 hours to a concentration of 5×10^6 CFU/ml. Strain solutions were prepared by diluting each of the […] of 2×10^5 CFU/ml.
as §2, with “Then, the KU-5878” for “Then, each”
(§5) In addition, 10 μl of each reaction solution of the peptide and the strain was plated on the TS agar plate at a constant size, and incubated in an incubator at 37° C. for 18 hours, and then colony formation on the plate was checked.

[2] = test system: multidrug-resistant Pseudomonas aeruginosa; conditions: 4 h
Protocol: as §1, §2, §3, §4
as §2, with “Then, the KU-5878” for “Then, each”
as §5
Meanwhile, the multidrug-resistant Pseudomonas aeruginosa, multidrug-resistant Acinetobacter and multidrug-resistant Klebsiella in Table 2 below were bacteria isolated from patients at Korea University Anam Hospital. […] Then, these bacteria were used in the experiment.

[3] = test system: Staphylococcus aureus (ATCC 29213); assay type: cell-based; conditions: for MBC value (μg/ml) against Staphylococcus aureus: ATCC 29213, 1 h; for MBC Staphylococcus aureus: Tables 11-15, no unit printed
Description: (§6) Romo1 protein comprises two α-helices. The present inventors synthesized the α-helix 2 region having both hydrophilicity and hydrophobicity, and evaluated the antibacterial activity thereof using minimum bactericidal concentration (MBC) assay. The α-helix 2 region was named KU-5279 (the 52-79 amino acid region of Romo1 protein). Then, in order to identify peptides that are beneficial for human application and have excellent antibacterial activity, the present inventors synthesized several peptides comprising a sequence of contiguous amino acids starting at any amino acid selected from the 52-79 amino acid region of Romo1 protein, and comparatively evaluated the antibacterial activities of the peptides by minimum bactericidal concentration assay (See Table 1 below for information on each peptide). Evaluation of the antibacterial activity of each peptide by minimum bactericidal concentration assay was specifically performed as follows. First, each of Pseudomonas aeruginosa (ATCC 27853) and Staphylococcus aureus (ATCC 29213) was cultured in 3% (w/v) TSB (Tryptic Soy Broth) liquid medium at 37° C. and 200 rpm for 4 hours, and then further cultured under the same conditions for 3 hours to a concentration of 5×10^6 CFU/ml. Strain solutions were prepared by diluting each of the further cultured strains with SP (sodium phosphate; 10 mM sodium phosphate, 1% TSB) buffer to a final concentration of 2×10^5 CFU/ml. Then, each peptide at varying concentrations (0 μg/ml to 300 μg/ml) was dispensed into each well of a 96-well microplate, and 100 μl (1×10^5 CFU/ml) of each of the prepared strain solutions was added thereto, mixed therewith, and allowed to react with the peptide in an incubator at 37° C. for 1 hour. In addition, 30 g/L of TS (tryptic soy) and 15 g/L of agar were dissolved in distilled water and sterilized, and then 25 ml of the solution was poured onto a 100 mm round plate and solidified at room temperature for one day or more, thereby preparing a TS agar plate. 10 μl of each reaction solution of the peptide and the strain was plated on the TS agar plate at a constant size, and incubated in an incubator at 37° C. for 18 hours, and then colony formation on the plate was checked. The minimum bactericidal concentration was defined as the minimum concentration of the peptide at which no colony was formed, and the experimental results are shown in Table 1 below.

[4] = test system: Pseudomonas aeruginosa (ATCC 27853); assay type: cell-based; conditions: for MBC value (μg/ml) against Pseudomonas aeruginosa: ATCC 27853, 1 h; for MBC Pseudomonas aeruginosa: Tables 11-15, no unit printed
Description: as §6

Compound	MBC CRPA (CRPA)	MBC value (μg/ml) against methicillin-resistant Staphylococcus aureus [1]	MBC MRSA [1]	MBC value (μg/ml) against multidrug-resistant Pseudomonas aeruginosa [2]	MBC value (μg/ml) against Staphylococcus aureus [3]	MBC Staphylococcus aureus [3]	MBC value (μg/ml) against Pseudomonas aeruginosa [4]	MBC Pseudomonas aeruginosa [4]
KTMMQSGGTFGTFMAIGMGIA [KU-5878-R78A]	> 300 µg/mL	>300 µg/mL	> 300 µg/mL	>300 µg/mL	>300 µg/mL	> 300 µg/mL	>300 µg/mL	> 300 µg/mL
KRMMQSGGTFGTFMAIGMGIR [KU-5878-T59R]	30 µg/mL	30 µg/mL	30 µg/mL	35 µg/mL	25 µg/mL	25 µg/mL	30 µg/mL	30 µg/mL
KKMMKSGGTFGTFMAIGMGIR [KU-5878-K2]	6 µg/mL	8 µg/mL	8 µg/mL	8 µg/mL	8 µg/mL	8 µg/mL	8 µg/mL	8 µg/mL
KTMMKSGGTFGTFMAIGMGIR [KU-5878-Q62K]	90 µg/mL	85 µg/mL	90 µg/mL	90 µg/mL	80 µg/mL	80 µg/mL	90 µg/mL	90 µg/mL
KTMMQKGGTFGTFMAIGMGIR [KU-5878-S63K]	50 µg/mL	60 µg/mL	50 µg/mL	60 µg/mL	50 µg/mL	50 µg/mL	60 µg/mL	60 µg/mL
KTMMQSGGTFGKFMAIGMGIR [KU-5878-T69K]	150 µg/mL	150 µg/mL	150 µg/mL	150 µg/mL	130 µg/mL	130 µg/mL	140 µg/mL	140 µg/mL
KTMMQSGGTFGTFMAIGMGIK [KU-5878-R78K]	> 300 µg/mL	>300 µg/mL	> 300 µg/mL	>300 µg/mL	>300 µg/mL	> 300 µg/mL	>300 µg/mL	> 300 µg/mL
RTMMQSGGTFGTFMAIGMGIR [KU-5878-K58R]	120 µg/mL	130 µg/mL	120 µg/mL	120 µg/mL	120 µg/mL	120 µg/mL	120 µg/mL	120 µg/mL
ATMMQSGGTFGTFMAIGMGIR [KU-5878-K58A]	> 300 µg/mL	>300 µg/mL	> 300 µg/mL	>300 µg/mL	>300 µg/mL	> 300 µg/mL	>300 µg/mL	> 300 µg/mL
KSMMQSGGTFGTFMAIGMGIR [KU-5878-T59S]	> 300 µg/mL	–	> 300 µg/mL	–	–	> 300 µg/mL	–	> 300 µg/mL
KTMMQSGGTFGTFMAIGMGAR [KU-5878-I77A]	> 300 µg/mL	–	> 300 µg/mL	–	>300 µg/mL	> 300 µg/mL	>300 µg/mL	> 300 µg/mL
KTMMQSGGTFGTF-AIG-GIR [5878-d71M, d75M]	300 µg/mL	–	300 µg/mL	–	–	250 µg/mL	–	300 µg/mL
KTMMQTGGTFGTFMAIGMGIR [KU-5878-S63T]	> 300 µg/mL	–	> 300 µg/mL	–	–	> 300 µg/mL	–	> 300 µg/mL
KTMMQSGGTFGTFMAIGMGTR [KU-5878-I77T]	> 300 µg/mL	–	> 300 µg/mL	–	>300 µg/mL	> 300 µg/mL	>300 µg/mL	> 300 µg/mL
KTMMQSGGTFGTFMAIGMGGR [KU-5878-I77G]	100 µg/mL	–	90 µg/mL	–	90 µg/mL	90 µg/mL	80 µg/mL	80 µg/mL
CCCC[C@H](NC(=O)CNC(=O)[C@@H](NC(=O)[C@H](C)NC(=O)[C@H](CCCC)NC(=O)[C@H](Cc1ccccc1)NC(=O)[C@@H](NC(=O)CNC(=O)[C@H](Cc1ccccc1)NC(=O)[C@@H](NC(=O)CNC(=O)CNC(=O)[C@H](CO)NC(=O)[C@H](CCC(N)=O)NC(=O)[C@H](CCCC)NC(=O)[C@H](CCCC)NC(=O)[C@@H](NC(=O)[C@@H](N)CCCCN)[C@@H](C)O)[C@@H](C)O)[C@@H](C)O)[C@@H](C)CC)C(=O)NCC(=O)N[C@H](C(=O)N[C@@H](CCCNC(=N)N)C(=O)O)[C@@H](C)CC [KU-5878-4Nle] (H-KT[Nle][Nle]QSGGTFGTF[Nle]AIG[Nle]GIR-OH; N-terminus and C-terminus assumed)	100 µg/mL (≈ 46.5 µM)	–	100 µg/mL (≈ 46.5 µM)	–	90 µg/mL (≈ 41.8 µM)	90 µg/mL (≈ 41.8 µM)	110 µg/mL (≈ 51.1 µM)	110 µg/mL (≈ 51.1 µM)
KT-MQS-GTFGTFMAIGMGIR [5878-d60M, d64G]	100 µg/mL	–	110 µg/mL	–	–	100 µg/mL	–	100 µg/mL
